# Test results as given in a melting point compilation (Tetko et al.; mined from patent text by program, amines drawn as free bases though some values may be those of a salt).
row,Compound,melting point
1,O=C(O)CCCCCCCCCCCNC(=O)CCCCCCCCCCBr,122 °C
2,Cc1ccc(-c2nnc(N3CCC(C(N)=O)CC3)nc2-c2ccc(C)cc2)cc1,222 to 224 °C
3,Cc1cccc(-c2cc(Cl)cc3c2OC(CN=[N+]=[N-])C3)c1 (stereo not given),48 to 50 °C
4,CCCCCCOc1c(OCCCCCC)c(OC(=O)C(C)(C)C)c2ccccc2c1OC(=O)C(C)(C)C,111 to 112 °C
5,N#CC(OC(=O)CC=Cc1ccccc1)c1ccc2ccccc2c1 (stereo not given),74 to 75 °C
6,Clc1ccc(-c2nc(COc3ccc(CCCn4ccnc4)cc3)co2)o1,88 to 89 °C
7,COc1ccc2[nH]ccc2c1OCc1ccccc1,83 to 84 °C
8,CN1CCN(C=Nc2ccc3nnc(-c4ccc([N+](=O)[O-])o4)n3n2)CC1,247 to 248 °C
9,CC(CCCC(=NO)C(=O)O)(c1ccc(OCc2ccc3ccccc3n2)cc1)c1ccc(OCc2ccc3ccccc3n2)cc1,78 to 80 °C
10,Cc1ccc(-c2nc(N)n3nc(-c4ccco4)nc3n2)cc1,> 275 °C
11,COc1ccc2cc(C3CCN(C[C@H](O)COc4cccc5oc(C6=NC(C)(C)CO6)cc45)CC3)ccc2c1,133 to 134 °C
12,CS(=O)(=O)c1nc(C(N)=O)n[nH]1,172 to 180 °C
13,COc1ccc2cccc(N3CCN(CCCCOc4ccc5c(n4)NC(=O)NCC5)CC3)c2c1,155 to 158 °C
14,CCCOc1ccc(S(C)(=O)=O)cc1-c1nc(OC)c2[nH]nc(CC)c2n1,137 to 139 °C
15,Cc1cc2c(cc1C(C)O)OCO2 (stereo not given),61 to 62 °C
16,CNc1ncn(-c2ccccc2C)c(=O)n1,192 °C
17,COc1cc(N)c(Cl)cc1C(=O)NCC1CCN(CCCCCC(=O)c2cn(C)c3ccccc23)CC1,125 to 127 °C
18,COc1ccc(Cn2c(=O)cc(-c3nccn3C)c3cnc(SC)nc32)cc1Cl,218 to 220 °C
19,CS(=O)(=O)c1ccc(-n2nc(C(F)(F)F)cc2-c2ccc(-c3cc4ccccc4o3)cc2)cc1,137 to 138 °C
20,N#CCc1ccc(C2CCCCC2)cc1,48 to 49 °C
21,COc1cccc(CNc2cc(C(N)=O)c([N+](=O)[O-])cc2[N+](=O)[O-])c1,222 to 224 °C
22,C=CC(=O)N1C/C(=C\c2ccc([N+](=O)[O-])cc2)C(=O)/C(=C/c2ccc([N+](=O)[O-])cc2)C1,170 to 172 °C

row,Compound,melting point
1,CCOC(=O)CS(=O)CCNC(=O)OCC (stereo not given),73.8 to 77 °C
2,CS(=O)(=O)c1ccc(-n2nc(C(F)(F)F)cc2-c2ccc(-c3ccco3)cc2)cc1C(F)(F)F,159 to 160 °C
3,CC(C)(C)c1ccc(S(=O)(=O)N2c3ccccc3C[C@H]2C(=O)NCc2ccc(CC(=O)O)cc2)cc1,80 to 85 °C
4,CC(=O)C=CS(=O)(=O)N1C=C(Cl)C=NC1,95 °C
5,O=C(O)c1ccc(Sc2ccc(OCc3ccc4ccccc4n3)cc2)cc1,195 to 197 °C
6,Cc1ccc(S(=O)(=O)NC(=O)C(C)(NC(=O)NN(C)C)C(C)C)cc1 (stereo not given),96 to 98 °C
7,CC(C)C(C)NC1=NS(=O)(=O)c2cc(Cl)c(Cl)cc2N1 (stereo not given),242 to 250 °C
8,Oc1ccc2c(C3CCCCC3)nsc2c1,190 °C
9,CCCNC(=O)C(C)Cc1ccc2c(c1)c(Cc1ccc(C(=O)NS(=O)(=O)c3ccccc3C)cc1OC)cn2CC(=O)N(C)C (stereo not given),109 to 124 °C
10,CCOC(=O)c1ccc(N2CCc3[nH]c4c(cnc5cc(Cl)ccc54)c3C2)cc1,241 to 243 °C
11,CCOC(=O)NN=Cc1c[nH]c(COC)n1,186 to 190 °C
12,CC(C)Cc1nc(N)c(C(=O)c2c[nH]c3ccccc23)[nH]c1=O,228 to 230 °C
13,CCC1C(=O)N(c2ccccc2)C(=S)N1c1ccc(Oc2ccccc2)cc1 (stereo not given),158 to 159 °C
14,COc1cc(-c2ccc(C=O)o2)ccc1Br,127 to 128 °C
15,CC(C)n1nc(-c2ccc(O)cc2)c2sccc2c1=O,256 to 257 °C
16,CCn1ncc2c(NCC3CC3)c3ccccc3nc21,228 to 230 °C
17,O=C(C(=O)c1cccc(OCCCN2CCCC2)c1)c1cccc(OCCCN2CCCC2)c1,136 to 139 °C
18,CC1=C2CCc3cc(C)ccc3N2CCC1=O,143 to 145 °C
19,CN1CCC(c2c(O)cc(O)c3c(=O)cc(Sc4ccccc4)oc23)C(O)C1 (stereo not given),82 °C
20,Cn1nc(-c2ccccc2F)nc1-c1ccccc1C(F)(F)F,104 to 107 °C
21,COc1ccc2cc([C@H](C)C(=O)OCCN3CCC(C)(SN=O)CC3)ccc2c1,131 °C
22,COc1cc(OC)nc(OC(C(=O)O)C(OC)(c2ccccc2)c2ccccc2)n1 (stereo not given),16 to 17 °C

row,Compound,melting point
1,COc1ccccc1SCC(O)CN(C)Cc1cc2c(=O)c(C(=O)NCc3ccc(Cl)cc3)cn(C)c2o1 (stereo not given),145 to 147 °C
2,CCN(c1c(-c2ccccc2)[nH]c(C)c1C(=O)c1ccccc1)S(=O)(=O)c1ccc(C)cc1,224 to 225 °C
3,CC(C)(C)c1csc(-c2cc3cc(Cn4c(C(N)=O)cc5ccccc54)ccc3o2)n1,151 to 152 °C
4,c1ccc(N2CCNNCC2)cc1,211 to 218 °C
5,COc1ccc(-c2nc(-c3cccn3Cc3ccccc3)[nH]c2-c2ccc(OC)cc2)cc1,183 °C
6,C[Si](C)(C)OC1(C#N)CCOc2ccc(Cl)cc21 (stereo not given),72 to 73 °C
7,Cc1ccc(-c2cc(C(F)(F)F)n3cnc(C#N)c3n2)cc1,197 °C
8,Cc1nc(NC(=O)c2cnn3c(C(F)(F)F)cc(-c4ccc(C(F)(F)F)cc4)nc23)sc1S(=O)(=O)NCCN(C)C,235 °C
9,O=C(NCCc1cccs1)C12CC3CC(CC1C3)C2,113 to 114 °C
10,CCCOC(=O)c1c(C)nc2cc(OC)c(OC)cc2c1-c1ccc(OC)c(OC)c1,153 to 155 °C
11,CN(C)c1ccc(NC(=O)N(CC2CCC(CN(C(=O)Nc3ccc(N(C)C)cc3)C3CC4CCC3C4)CC2)C2CC3CCC2C3)cc1 (stereo not given),188 to 191 °C
12,COc1cc(CC(=O)Nc2nn(-c3ccccc3)cc2C=O)ccc1OCc1nc(-c2ccccc2)oc1C,156 to 158 °C
13,Nc1ncc(-c2cccc(Nc3ccc(-c4ccoc4)cc3[N+](=O)[O-])c2)cn1,185 to 186 °C
14,COc1ccccc1NC(=O)Nc1nc(Nc2ccccc2-c2ccccc2)nc(N(CCC(=O)O)Cc2ccc(C)cc2)n1,102 °C
15,Clc1cc(Cl)cc(CC(Cl)CC(Cl)(Cl)Cl)c1 (stereo not given),44.5 to 46.5 °C
16,CCCCCC(C)C(C)c1cc(O)c2c(c1)OC(C)(C)C1=C2CN(CC(N)=O)CC1 (stereo not given),165 to 168 °C
17,CC1C(=O)Oc2cc(N3CCOCC3)ccc21 (stereo not given),118 to 121 °C
18,OCC(O)CN1CCN(c2nccs2)CC1 (stereo not given),138 to 139 °C
19,CN(C(=O)C(Cl)(Cl)Cl)c1nc(Cl)c([N+](=O)[O-])s1,146 to 149 °C
20,COc1cc(OC)c(OC(=O)CS(=O)(=O)Nc2c(C(C)C)cccc2C(C)C)c(OC)c1,167 to 170 °C
21,Cc1cc(C)cc(Oc2[nH]c(=O)[nH]c(=O)c2C(C)C)c1,91 to 92 °C

# The remaining lines, values ahead:
row,melting point,Compound
1,124 °C,ONc1cc(Cl)ccc1Cl
2,80 to 82 °C,CCCCCCCCCCCCCCOc1ccc(C(=O)NCCc2ccccn2)cc1
3,94 to 95 °C,O=Cc1ccc(OCc2ccccc2)c(F)c1
4,108 to 109 °C,CCOC(=O)C(C)(C)Oc1ccc(CCCC(=O)NN(Cc2cc(F)cc(F)c2)C(N)=O)cc1
5,35 °C,CCCCNc1cccc(O)c1
6,116 to 118 °C,COc1ccc2cc(C(=O)CCCCC(=O)N(C)O)ccc2c1
7,154 to 158 °C,CCCCCCCCCCCCNC(=O)c1cc(-c2cccc(C(F)(F)F)c2)c(OCC(=O)O)c(-c2cccc(C(F)(F)F)c2)c1
8,75 to 76 °C,CCN(CC)c1ccc([N+](=O)[O-])cn1
9,259 to 260 °C,Nc1nc2ccccc2c2c1ncn2Cc1cc(-c2ccc(F)cc2)no1
10,109 to 111 °C,CCCC(=O)c1cnc2c(C)cccc2c1Nc1ccccc1F
11,134 to 136 °C,CCOC(=O)c1ccc(S(=O)(=O)C(Br)(Br)Br)cc1
12,64 °C,CCN(CC)C(=O)c1cc(-c2cccs2)c2occc2c1
13,107 to 108 °C,CCNCC(=O)Nc1c(Cc2nccc3ccccc23)ccc(OC)c1OC
14,45 to 47 °C,O=C(O)CCCc1ccc(F)cc1F
15,> 300 °C,O=C(Nc1ccc(-c2c[nH]c(=O)cn2)cc1)c1ccccc1
16,123 to 124 °C,C[C@H](/C=C\c1ccc(Cc2ccc(F)cc2)s1)N(O)C(N)=O
17,128 to 129 °C,CCOC(=O)Cn1c(=O)c2cc(CBr)ccc2n(Cc2ccc(Cl)c(Cl)c2)c1=O
18,91.5 to 92.5 °C,CCOC(=O)Cc1ccc(NC(=O)c2cc(C(C)C)c(C(C)C)o2)cc1

row,melting point,Compound
1,220 to 221 °C,O=c1c2ccc3c(c2oc2cccc(F)c12)CC(CO)O3 (stereo not given)
2,169 to 170 °C,COCC(=O)Oc1ccc(C=CNC(C)=O)cc1
3,108 to 110 °C,C[C@H]1C[C@H](C(=O)O)c2cc(Cl)c(Cl)cc2O1 (relative stereo)
4,110 to 111 °C,CC(C)Nc1cccnc1N1CCN(C(=O)c2ccc(C(=O)NCCCO)cc2)CC1
5,108 °C,Cc1ccc(C(=O)c2ccc(Cc3ccc(N)cc3)n2C)c(C)c1
6,213 to 214 °C,Nc1ncnc2c1ncn2CCCN1CCC(NC(=O)c2ccccc2)CC1
7,> 250 °C,CCCNCC1Cc2cc(F)cc(-c3c(Cl)cccc3Cl)c2O1 (stereo not given)
8,89 to 90 °C,CC(C)OC(=O)Nc1ccc(O)c(Cl)c1
9,108 to 110 °C,C[C@@H](O)Cn1ccc2cc(Cl)c(F)cc21
10,150 to 152 °C,NNC(=S)Cc1ccc(F)cc1
11,152 °C,Clc1ccc2nc(Cl)cnc2c1
12,175 °C,CC1=NOC(c2c(S(C)(=O)=O)ccc(C(=O)O)c2Cl)C1 (stereo not given)
13,144 to 146 °C,CC(=O)NC=Cc1ccc(OCC(O)CNC(C)C)cc1 (stereo not given)
14,228 °C,Cc1ccc(S(=O)(=O)Cc2c(C(=O)O)nn(-c3ccccc3)c2O)cc1
15,157 to 158 °C,Cn1c(CNCC2CCOCC2)cc2cc(NC(=O)c3ccc(OC[C@@H]4CCCO4)cc3)ccc21
16,130 to 132 °C,O=C(O)[C@H](CCc1ccccc1)NS(=O)(=O)c1ccc2oc3ccccc3c2c1
17,138 to 140 °C,Cc1ccc2ccc(O)c(CC(=O)O)c2c1
